Source: US20230265151A1, “GIP/GLP1 CO-AGONIST COMPOUNDS” (priority 2020, published 2023)
Read-outs that look alike come from different tables or passages of the source. *1 amine or outer side, *2 acyl side, *3 side chain or, on linkers, in order; H or OH if unused. Where a SMILES comes first, the peptide text is derived from it. Side-chain parts run from the residue outwards. [ ]: non-standard residue; d: D form. The star is where a group is joined. αMePhe(2-F) = C[C@](N)(Cc1ccccc1F)C(=O)O; γGlu = O=C(O)[C@H](CCC(=O)[*:2])N[*:1]; C14 diacid = O=C(O)CCCCCCCCCCCCC(=O)*; αMeY = C[C@](N)(Cc1ccc(O)cc1)C(=O)O; αMeF = C[C@](N)(Cc1ccccc1)C(=O)O; 4Pal = N[C@@H](Cc1ccncc1)C(=O)O; αMeL = CC(C)C[C@](C)(N)C(=O)O; Lauroyl = CCCCCCCCCCCC(=O)*; Orn = NCCC[C@H](N)C(=O)O; AEEA = NCCOCCOCC(=O)O; Aib = CC(C)(N)C(=O)O

Assays:
Type in all cases: cell-based
hGIPR = molecular target: T1, hGIPR (Homo sapiens, UniProt P48546); experiment: Functional cAMP formation (HTRF) in HEK-293 clonal cells expressing hGIPR, 0.1% bovine casein, without or with 1.0% human serum albumin; details: for EC50: read-out: hGIPR EC50, nM (SEM, n); for Emax: read-out: hGIPR Emax, % ± SEM
T1 construct: expressed in transfected cells
T1 sequence (P48546 22-466): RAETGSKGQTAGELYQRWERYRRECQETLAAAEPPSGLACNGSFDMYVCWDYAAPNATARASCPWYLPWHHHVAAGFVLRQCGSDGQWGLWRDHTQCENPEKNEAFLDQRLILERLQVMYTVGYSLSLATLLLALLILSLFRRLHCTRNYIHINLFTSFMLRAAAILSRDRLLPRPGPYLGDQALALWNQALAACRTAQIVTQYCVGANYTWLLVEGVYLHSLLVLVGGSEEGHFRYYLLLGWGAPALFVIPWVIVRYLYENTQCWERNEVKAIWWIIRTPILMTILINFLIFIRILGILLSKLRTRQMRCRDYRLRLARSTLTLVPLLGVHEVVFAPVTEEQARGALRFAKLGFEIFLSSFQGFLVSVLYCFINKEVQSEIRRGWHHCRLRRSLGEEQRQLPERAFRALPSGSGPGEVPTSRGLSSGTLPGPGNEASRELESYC
Outline: (§1)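 Cells were stimulated with peptide for 30 min at 37° C, then intracellular cAMP was measured by competitive HTRF (665/620 nm ratio) and converted to nM using a cAMP standard curve. Relative EC50 and Emax came from four-parameter logistic fits of percent maximal response against peptide concentration.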

hGCGR = molecular target: T2, hGCGR (Homo sapiens, UniProt P47871); experiment: Functional cAMP formation (HTRF) in HEK-293 clonal cells expressing hGCGR, 0.1% bovine casein, without or with 1.0% human serum albumin; details: read-out: hGCGR EC50, nM (SEM, n)
T2 construct: expressed in transfected cells
T2 sequence (P47871 26-477): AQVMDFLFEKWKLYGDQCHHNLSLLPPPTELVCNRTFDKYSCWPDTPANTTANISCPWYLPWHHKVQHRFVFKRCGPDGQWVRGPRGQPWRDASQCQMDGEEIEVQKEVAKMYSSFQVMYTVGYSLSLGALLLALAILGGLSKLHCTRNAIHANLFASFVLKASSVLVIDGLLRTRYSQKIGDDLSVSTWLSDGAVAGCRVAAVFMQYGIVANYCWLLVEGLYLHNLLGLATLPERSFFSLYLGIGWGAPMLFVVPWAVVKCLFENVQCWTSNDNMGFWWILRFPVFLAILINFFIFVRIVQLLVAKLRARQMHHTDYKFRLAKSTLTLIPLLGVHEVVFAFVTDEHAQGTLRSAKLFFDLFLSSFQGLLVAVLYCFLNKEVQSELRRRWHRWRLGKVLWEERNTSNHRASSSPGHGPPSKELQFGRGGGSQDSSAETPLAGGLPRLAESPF
Outline: as §1

hGLP-1R = hGLP-1R (Homo sapiens, UniProt P43220); experiment: Functional cAMP formation (HTRF) in HEK-293 clonal cells expressing hGLP-1R, 0.1% bovine casein, without or with 1.0% human serum albumin; design: expressed in transfected cells; details: for EC50: geometric mean, read-out: hGLP-1R EC50, nM (SEM, n); for Emax: read-out: hGLP-1R Emax, % ± SEM
Sequence of hGLP-1R (P43220 24-463): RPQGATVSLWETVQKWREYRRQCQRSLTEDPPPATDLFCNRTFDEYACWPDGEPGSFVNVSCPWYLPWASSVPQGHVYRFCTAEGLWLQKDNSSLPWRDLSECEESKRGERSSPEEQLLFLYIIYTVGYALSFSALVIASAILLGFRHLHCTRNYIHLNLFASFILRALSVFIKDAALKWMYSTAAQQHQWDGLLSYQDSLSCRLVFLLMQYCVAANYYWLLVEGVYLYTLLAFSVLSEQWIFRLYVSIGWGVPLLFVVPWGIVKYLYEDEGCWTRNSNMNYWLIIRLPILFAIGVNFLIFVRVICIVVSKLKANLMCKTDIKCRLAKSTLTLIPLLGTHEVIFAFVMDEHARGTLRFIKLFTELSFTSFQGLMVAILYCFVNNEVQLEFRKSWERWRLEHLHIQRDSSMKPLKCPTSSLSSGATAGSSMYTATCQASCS
Outline: as §1

[1] = 0.1% bovine casein and 1.0% human serum albumin, 37° C., geometric mean
[2] = HEK293, 0.1% bovine casein and 1.0% human serum albumin, 37° C., percent of maximal response to GIP(1-42)NH2
[3] = HEK293, percent of maximal response to GIP(1-42)NH2, 37° C., 0.1% bovine casein, arithmetic mean
[4] = cAMP, incubated at 37° C., 0.1% bovine casein (no human serum albumin), geometric mean
[5] = 0.1% bovine casein and 1.0% human serum albumin, 37° C.
[6] = HEK293, percent of maximal response to GLP-1(7-36)NH2, 37° C., 0.1% bovine casein, arithmetic mean
[7] = cAMP, 37° C., 0.1% bovine casein (no human serum albumin), geometric mean
[8] = cAMP, 37° C., 0.1% bovine casein and 1.0% human serum albumin, geometric mean (SEM, n)

| Compound | EC50 (hGIPR; [1]) | Emax (hGIPR; [2]) | Emax (hGIPR; [3]) | EC50 (hGCGR; [1]) | EC50 (hGCGR; [4]) | EC50 (hGLP-1R; [5]) | Emax (hGLP-1R; [6]) | EC50 (hGLP-1R; cAMP, incubated at 37° C., 0.1% bovine casein (no human serum albumin)) | Emax (hGIPR; HEK293, cAMP, 37° C., 0.1% bovine casein and 1.0% human serum albumin, percent of maximal response to GIP(1-42)NH2) | EC50 (hGIPR; [7]) | EC50 (hGIPR; [8]) | EC50 (hGCGR; [7]) | EC50 (hGCGR; [8]) | Emax (hGLP-1R; HEK293, cAMP, 37° C., 0.1% bovine casein and 1.0% human serum albumin, percent of maximal response to GLP-1(7-36)NH2) | Emax (hGLP-1R; HEK293, cAMP, 37° C., 0.1% bovine casein, percent of maximal response to GLP-1(7-36)NH2, arithmetic mean) | EC50 (hGLP-1R; cAMP, 37° C., 0.1% bovine casein (no human serum albumin)) | EC50 (hGIPR; [4]) |
| --- | --- | --- | --- | --- | --- | --- | --- | --- | --- | --- | --- | --- | --- | --- | --- | --- | --- |
| CC[C@H](C)[C@H](NC(=O)[C@H](CC(C)C)NC(=O)[C@](C)(Cc1ccc(O)cc1)NC(=O)[C@@H](CCC(=O)O)NC(=O)[C@@H](NC(=O)[C@H](Cc1ccccc1)NC(=O)[C@H](CCC(=O)O)NC(=O)C(C)(C)NC(=O)[C@H](CCC(N)=O)NC(=O)[C@H](C)NC(=O)[C@H](CCCCNC(=O)COCCOCCNC(=O)COCCOCCNC(=O)COCCOCCNC(=O)CC[C@H](NC(=O)CCCCCCCCCCCCC(=O)O)C(=O)O)NC(=O)[C@H](CCCN)NC(=O)[C@H](CC(=O)O)NC(=O)[C@H](CC(C)C)NC(=O)[C@](C)(CC(C)C)NC(=O)[C@@H](NC(=O)[C@H](CO)NC(=O)[C@H](Cc1ccncc1)NC(=O)[C@H](CC(=O)O)NC(=O)[C@H](CO)NC(=O)[C@@H](NC(=O)[C@](C)(Cc1ccccc1F)NC(=O)[C@@H](NC(=O)CNC(=O)[C@H](CCC(=O)O)NC(=O)C(C)(C)NC(=O)[C@@H](N)Cc1ccc(O)cc1)[C@@H](C)O)[C@@H](C)O)[C@@H](C)CC)[C@@H](C)CC)C(=O)N[C@@H](CCC(=O)O)C(=O)NCC(=O)NCC(=O)N1CCC[C@H]1C(=O)N[C@@H](CO)C(=O)N[C@@H](CO)C(=O)NCC(=O)N[C@@H](C)C(=O)N1CCC[C@H]1C(=O)N1CCC[C@H]1C(=O)N1CCC[C@H]1C(=O)N[C@@H](CO)C(=O)N[C@@H](CCCCNC(=O)COCCOCCNC(=O)COCCOCCNC(=O)COCCOCCNC(=O)CC[C@H](NC(=O)CCCCCCCCCCCCC(=O)O)C(=O)O)C(N)=O [Example 225] | 1.81 nM | 67.5% | 105% | > 9950 nM | > 9950 nM | 51.6 nM | 92.1% | – | – | – | – | – | – | – | – | – | – |
| CC[C@H](C)[C@H](NC(=O)[C@H](CC(C)C)NC(=O)[C@H](CCCCNC(=O)COCCOCCNC(=O)COCCOCCNC(=O)CC[C@H](NC(=O)CCCc1ccc(C(C)(C)C)cc1)C(=O)O)NC(=O)[C@@H](CCC(=O)O)NC(=O)[C@@H](NC(=O)[C@H](Cc1ccccc1)NC(=O)[C@H](CCC(=O)O)NC(=O)C(C)(C)NC(=O)[C@H](CCC(N)=O)NC(=O)[C@H](C)NC(=O)[C@H](CCCCNC(=O)COCCOCCNC(=O)COCCOCCNC(=O)CC[C@H](NC(=O)CCCc1ccc(C(C)(C)C)cc1)C(=O)O)NC(=O)[C@H](CCCN)NC(=O)[C@H](CC(=O)O)NC(=O)[C@H](CC(C)C)NC(=O)[C@](C)(CC(C)C)NC(=O)[C@@H](NC(=O)[C@H](CO)NC(=O)[C@H](Cc1ccncc1)NC(=O)[C@H](CC(=O)O)NC(=O)[C@H](CO)NC(=O)[C@@H](NC(=O)[C@](C)(Cc1ccccc1F)NC(=O)[C@@H](NC(=O)CNC(=O)[C@H](CCC(=O)O)NC(=O)C(C)(C)NC(=O)[C@@H](N)Cc1ccc(O)cc1)[C@@H](C)O)[C@@H](C)O)[C@@H](C)CC)[C@@H](C)CC)C(=O)N[C@@H](CCC(=O)O)C(=O)NCC(=O)NCC(=O)N1CCC[C@H]1C(=O)N[C@@H](CO)C(=O)N[C@@H](CO)C(=O)NCC(=O)N[C@@H](C)C(=O)N1CCC[C@H]1C(=O)N1CCC[C@H]1C(=O)N1CCC[C@H]1C(=O)N[C@@H](CO)C(N)=O [Example 67] | 0.0417 nM | 91.9% | 95% | > 9950 nM | > 9950 nM | 12 nM | 91.7% | 2.63 nM | – | – | – | – | – | – | – | – | – |
| CCCCCCCCCCCC(=O)N[C@@H](CCC(=O)NCCOCCOCC(=O)NCCOCCOCC(=O)NCCCC[C@H](NC(=O)[C@H](CCCN)NC(=O)[C@H](CC(=O)O)NC(=O)[C@H](CC(C)C)NC(=O)[C@](C)(CC(C)C)NC(=O)[C@@H](NC(=O)C(C)(C)NC(=O)[C@H](Cc1ccncc1)NC(=O)[C@H](CC(=O)O)NC(=O)[C@H](CO)NC(=O)[C@@H](NC(=O)[C@](C)(Cc1ccccc1F)NC(=O)[C@@H](NC(=O)CNC(=O)[C@H](CCC(=O)O)NC(=O)C(C)(C)NC(=O)[C@@H](N)Cc1ccc(O)cc1)[C@@H](C)O)[C@@H](C)O)[C@@H](C)CC)C(=O)N[C@@H](C)C(=O)N[C@@H](CCC(N)=O)C(=O)NC(C)(C)C(=O)N[C@@H](CCCCNC(=O)COCCOCCNC(=O)COCCOCCNC(=O)CC[C@H](NC(=O)CCCCCCCCCCC)C(=O)O)C(=O)N[C@@](C)(Cc1ccccc1)C(=O)N[C@H](C(=O)N[C@H](CCC(=O)O)C(=O)N[C@@](C)(Cc1ccc(O)cc1)C(=O)N[C@@H](CC(C)C)C(=O)N[C@H](C(=O)N[C@@H](CCC(=O)O)C(=O)NCC(=O)NCC(=O)N1CCC[C@H]1C(=O)N[C@@H](CO)C(=O)N[C@@H](CO)C(=O)NCC(=O)N[C@@H](C)C(=O)N1CCC[C@H]1C(=O)N1CCC[C@H]1C(=O)N1CCC[C@H]1C(=O)N[C@@H](CO)C(N)=O)[C@@H](C)CC)[C@@H](C)CC)C(=O)O [Example 430] (H-Y[Aib]EGT[αMePhe(2-F)]TSD[4Pal][Aib]I[αMeL]LD[Orn]K([AEEA-AEEA-γGlu-Lauroyl])AQ[Aib]K([AEEA-AEEA-γGlu-Lauroyl])[αMeF]I[dE][αMeY]LIEGGPSSGAPPPS-NH2) | – | – | – | – | – | – | – | – | 91.5% | 0.0175 nM | 1.09 nM | > 9950 nM | > 9950 nM | 88.5% | 93.1% | 0.342 nM | – |
| CC[C@H](C)[C@H](NC(=O)[C@H](CC(C)C)NC(=O)[C@H](Cc1ccc(O)cc1)NC(=O)[C@H](CCCCNC(=O)COCCOCCNC(=O)COCCOCCNC(=O)CC[C@H](NC(=O)CCCCCCCCCCCCC(=O)O)C(=O)O)NC(=O)[C@@H](NC(=O)[C@](C)(Cc1ccccc1)NC(=O)[C@H](CCC(=O)O)NC(=O)C(C)(C)NC(=O)[C@H](CCC(N)=O)NC(=O)[C@H](C)NC(=O)[C@H](CCCCNC(=O)COCCOCCNC(=O)COCCOCCNC(=O)CC[C@H](NC(=O)CCCCCCCCCCCCC(=O)O)C(=O)O)NC(=O)[C@H](CCCN)NC(=O)[C@H](CC(=O)O)NC(=O)[C@H](CC(C)C)NC(=O)[C@](C)(CC(C)C)NC(=O)[C@@H](NC(=O)[C@H](CO)NC(=O)[C@H](Cc1ccncc1)NC(=O)[C@H](CC(=O)O)NC(=O)[C@H](CO)NC(=O)[C@@H](NC(=O)[C@](C)(Cc1ccccc1F)NC(=O)[C@@H](NC(=O)CNC(=O)[C@H](CCC(=O)O)NC(=O)C(C)(C)NC(=O)[C@@H](N)Cc1ccc(O)cc1)[C@@H](C)O)[C@@H](C)O)[C@@H](C)CC)[C@@H](C)CC)C(=O)N[C@@H](CCC(=O)O)C(=O)NCC(=O)NCC(=O)N1CCC[C@H]1C(=O)N[C@@H](CO)C(=O)N[C@@H](CO)C(=O)NCC(=O)N[C@@H](C)C(=O)N1CCC[C@H]1C(=O)N1CCC[C@H]1C(=O)N1CCC[C@H]1C(=O)N[C@@H](CO)C(N)=O [Example 85] (H-Y[Aib]EGT[αMePhe(2-F)]TSD[4Pal]SI[αMeL]LD[Orn]K([AEEA-AEEA-γGlu-C14 diacid])AQ[Aib]E[αMeF]IK([AEEA-AEEA-γGlu-C14 diacid])YLIEGGPSSGAPPPS-NH2) | – | – | 91.7% | – | > 9950 nM | – | 95.3% | – | – | – | – | – | – | – | – | – | 0.0312 nM |
